For assay [1], the target named is MCL-1/Bim interaction (recombinant human MCL-1 protein, residues 171-327; biotinylated human Bim peptide, residues 51-76) (Homo sapiens (Human), UniProt Q07820). Briefly: MCL-1/Bim Binding AlphaLISA Assay. The conditions noted are these: 0.0625 nM 6xHis-Mcl-1 (171-327), 0.0625 nM biotinylated-Bim peptide. Summed up:
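AlphaLISA with 0.0625 nM His-tagged MCL-1 (171-327) and 0.0625 nM biotinylated Bim (51-76) in 20 mM Hepes pH 7.5, 150 mM NaCl, 0.002% Brij 35, 1 mM DTT, 0.01% BSA. Compound preincubated 1 h with MCL-1, then Bim 2 h, acceptor beads 1 h, donor beads 1 h; percent inhibition against DMSO and no-protein/no-peptide controls.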

In the next assay the test system is SKBR3 cells. Briefly: SKBR3 Cell Viability Assay (CellTiter Glo). It is filed as cell-based. Conditions: Homo sapiens, SK-BR-3, 72 h, CellTiter Glo luminescence, read-out: MCL-1 CV SKBR3 EC50. The essentials: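 SKBR3 cells (6,000/well) in McCoy 5A + 10% FBS exposed to serially diluted compound for 72 h at 37° C., 5% CO2. Viability by CellTiter Glo luminescence; % inhibition normalized to DMSO (negative) and 10 μM puromycin (positive).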
On the technique in general: ATP-based viability assays read luminescence as a measure of living cells.

Chain of MCL-1/Bim interaction (recombinant human MCL-1 protein, residues 171-327; biotinylated human Bim peptide, residues 51-76) (Q07820 171-327): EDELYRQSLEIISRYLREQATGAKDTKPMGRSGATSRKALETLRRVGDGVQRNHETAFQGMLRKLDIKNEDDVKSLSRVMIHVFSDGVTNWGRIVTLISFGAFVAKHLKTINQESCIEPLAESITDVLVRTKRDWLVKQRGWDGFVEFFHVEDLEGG

The term IC50 denotes the concentration that gives 50% inhibition. Usually EC50 stands for the concentration at which the effect is half-maximal. `CO[C@H]1/C=C/C[C@H](C)C[S@@](=O)(NC(=O)N2CC(C3COC3)C2)=NC(=O)c2ccc3c(c2)N(C[C@@H]2CC[C@H]21)C[C@@]1(CCCc2cc(Cl)ccc21)CO3` [Example 261]: the IC50 in assay [1] was 0.053 nM. Moreover, the EC50 in the assay with SKBR3 cells worked out at 72 nM.

Turning to `COc1nn(C2CC2)cc1C(=O)N[S@@]1(=O)=NC(=O)c2ccc3c(c2)N(C[C@@H]2CC[C@H]2[C@@H](OC)/C=C/C[C@H](C)C1)C[C@@]1(CCCc2cc(Cl)ccc21)CO3` [Example 262], in assay [1], the IC50 amounted to 0.056 nM. For the same compound, the concentration giving a half-maximal response (EC50) with SKBR3 cells amounted to 85.8 nM.

Regarding `CO[C@H]1/C=C/C[C@H](C)C[S@@](=O)(NC(=O)N2CC(OC3CC3)C2)=NC(=O)c2ccc3c(c2)N(C[C@@H]2CC[C@H]21)C[C@@]1(CCCc2cc(Cl)ccc21)CO3` [Example 263], the IC50 in assay [1] was 0.073 nM. The 50% effective concentration (EC50) with SKBR3 cells was determined as 62.2 nM.

As to `CO[C@H]1/C=C/C[C@H](C)C[S@@](=O)(NC(=O)N2CC(C(C)(C)OC)C2)=NC(=O)c2ccc3c(c2)N(C[C@@H]2CC[C@H]21)C[C@@]1(CCCc2cc(Cl)ccc21)CO3` [Example 265], in assay [1], the IC50 is 0.046 nM. In addition, in the assay with SKBR3 cells, the EC50 was 96.2 nM.

For the compound `COC1CN(C(=O)N[S@@]2(=O)=NC(=O)c3ccc4c(c3)N(C[C@@H]3CC[C@H]3[C@@H](O)/C=C/C[C@H](C)C2)C[C@@]2(CCCc3cc(Cl)ccc32)CO4)C1` [Example 266], the IC50 in assay [1] stood at 0.085 nM. Also, the EC50 with SKBR3 cells stood at 53.8 nM.

On to `CO[C@H]1/C=C/C[C@H](C)C[S@@](=O)(NC(=O)N2CC(CO)(OC)C2)=NC(=O)c2ccc3c(c2)N(C[C@@H]2CC[C@H]21)C[C@@]1(CCCc2cc(Cl)ccc21)CO3` [Example 267], for which the IC50 in assay [1] was 0.03 nM. The EC50 in the assay with SKBR3 cells was found to be 184 nM.

As to `COCC1(O)CN(C(=O)N[S@@]2(=O)=NC(=O)c3ccc4c(c3)N(C[C@@H]3CC[C@H]3[C@@H](OC)/C=C/C[C@H](C)C2)C[C@@]2(CCCc3cc(Cl)ccc32)CO4)C1` [Example 268], the IC50 in assay [1] stood at 0.058 nM. The EC50 in the assay with SKBR3 cells was found to be 88.8 nM.

Turning to `COc1ccc(C(=O)N[S@@]2(=O)=NC(=O)c3ccc4c(c3)N(C[C@@H]3CC[C@H]3[C@@H](OC)/C=C/C[C@H](C)C2)C[C@@]2(CCCc3cc(Cl)ccc32)CO4)cc1` [Example 269], in assay [1], the IC50 worked out at 0.081 nM. In the assay on SKBR3 cells, the EC50 worked out at 264 nM.

For `CO[C@H]1/C=C/C[C@H](C)C[S@@](=O)(NC(=O)N2CCN(CC#N)CC2)=NC(=O)c2ccc3c(c2)N(C[C@@H]2CC[C@H]21)C[C@@]1(CCCc2cc(Cl)ccc21)CO3` [Example 270], the IC50 in assay [1] was determined as 0.041 nM. Moreover, the EC50 with SKBR3 cells is 61.7 nM.

As for `COc1ncc(C(=O)N[S@@]2(=O)=NC(=O)c3ccc4c(c3)N(C[C@@H]3CC[C@H]3[C@@H](OC)/C=C/C[C@H](C)C2)C[C@@]2(CCCc3cc(Cl)ccc32)CO4)c(OC)n1` [Example 271], in assay [1], the IC50 stood at 0.1 nM. For the same compound, the EC50 in the assay with SKBR3 cells amounted to 176 nM.

In the case of `CO[C@H]1/C=C/C[C@H](C)C[S@@](=O)(NC(=O)N2CC3(CN(C)C(=O)O3)C2)=NC(=O)c2ccc3c(c2)N(C[C@@H]2CC[C@H]21)C[C@@]1(CCCc2cc(Cl)ccc21)CO3` [Example 272], the IC50 in assay [1] was found to be 0.018 nM. The EC50 in the assay with SKBR3 cells turned out to be 47.9 nM.

As to `COc1ncc(C(=O)N[S@@]2(=O)=NC(=O)c3ccc4c(c3)N(C[C@@H]3CC[C@H]3[C@@H](OC)/C=C/C[C@H](C)C2)C[C@@]2(CCCc3cc(Cl)ccc32)CO4)cn1` [Example 273], the IC50 in assay [1] was 0.077 nM. Also, in the assay on SKBR3 cells, the EC50 came to 81 nM.

Regarding `COCC1(OC)CN(C(=O)N[S@@]2(=O)=NC(=O)c3ccc4c(c3)N(C[C@@H]3CC[C@H]3[C@@H](OC)/C=C/C[C@H](C)C2)C[C@@]2(CCCc3cc(Cl)ccc32)CO4)C1` [Example 274], the IC50 in assay [1] was 0.043 nM. Further, the EC50 with SKBR3 cells was 82.6 nM.

Take `CO[C@H]1/C=C/C[C@H](C)C[S@@](=O)(NC(=O)N2CC(Oc3ccncc3)C2)=NC(=O)c2ccc3c(c2)N(C[C@@H]2CC[C@H]21)C[C@@]1(CCCc2cc(Cl)ccc21)CO3` [Example 275]: the IC50 in assay [1] came out at 0.053 nM. In addition, in the assay on SKBR3 cells, the EC50 stood at 90.4 nM.

With `CO[C@H]1/C=C/C[C@H](C)C[S@@](=O)(NC(=O)N2CC(OC)(c3nccn3C)C2)=NC(=O)c2ccc3c(c2)N(C[C@@H]2CC[C@H]21)C[C@@]1(CCCc2cc(Cl)ccc21)CO3` [Example 276], the IC50 in assay [1] was determined as 0.068 nM. The EC50 with SKBR3 cells came to 64.3 nM.

On to `CO[C@H]1/C=C/C[C@H](C)C[S@@](=O)(NC(=O)N2CC(OC)(c3ncnn3C)C2)=NC(=O)c2ccc3c(c2)N(C[C@@H]2CC[C@H]21)C[C@@]1(CCCc2cc(Cl)ccc21)CO3` [Example 277], for which the IC50 in assay [1] was found to be 0.061 nM. For the same compound, the EC50 with SKBR3 cells worked out at 60.9 nM.

On to `COc1cc(C(=O)N[S@@]2(=O)=NC(=O)c3ccc4c(c3)N(C[C@@H]3CC[C@H]3[C@@H](OC)/C=C/C[C@H](C)C2)C[C@@]2(CCCc3cc(Cl)ccc32)CO4)c(OC)nn1` [Example 278], for which the IC50 in assay [1] is 0.089 nM. Moreover, in the assay with SKBR3 cells, the EC50 was 80.5 nM.

For the compound `COc1nn(C)cc1C(=O)N[S@@]1(=O)=NC(=O)c2ccc3c(c2)N(C[C@@H]2CC[C@H]2[C@@H](O)CCC[C@H](C)C1)C[C@@]1(CCCc2cc(Cl)ccc21)CO3` [Example 280], the IC50 in assay [1] is 0.044 nM. For the same compound, the EC50 in the assay on SKBR3 cells stood at 50 nM.

On to `COc1nn(C)cc1C(=O)N[S@@]1(=O)=NC(=O)c2ccc3c(c2)N(C[C@@H]2CC[C@H]2[C@@H](OC)/C=C/[C@H](OC)[C@H](C)C1)C[C@@]1(CCCc2cc(Cl)ccc21)CO3` [Example 283], for which the IC50 in assay [1] was 0.029 nM. Further, in the assay on SKBR3 cells, the EC50 came out at 84.8 nM.

`CO[C@H]1/C=C/C[C@H](C)C[S@@](=O)(NC(=O)c2cc(CN3CCN(C(C)C)[C@H](C)C3)n(C)c2)=NC(=O)c2ccc3c(c2)N(C[C@@H]2CC[C@H]21)C[C@@]1(CCCc2cc(Cl)ccc21)CO3` [Example 284]: in assay [1], the IC50 is 0.061 nM. Also, the EC50 in the assay with SKBR3 cells came to 54.7 nM.

For the compound `COC(=O)N[C@H](C(=O)N1CCN(C(=O)N[S@@]2(=O)=NC(=O)c3ccc4c(c3)N(C[C@@H]3CC[C@H]3[C@@H](OC)/C=C/C[C@H](C)C2)C[C@@]2(CCCc3cc(Cl)ccc32)CO4)C[C@@H]1C)C(C)C` [Example 285], the IC50 in assay [1] amounted to 0.131 nM. Further, in the assay on SKBR3 cells, the EC50 was found to be 79.7 nM.

With `COC1CN(C2CN(C(=O)N[S@@]3(=O)=NC(=O)c4ccc5c(c4)N(C[C@@H]4CC[C@H]4[C@@H](OC)/C=C/C[C@H](C)C3)C[C@@]3(CCCc4cc(Cl)ccc43)CO5)C2)C1` [Example 286], the IC50 in assay [1] stood at 0.037 nM. Besides, the EC50 in the assay with SKBR3 cells is 65.1 nM.

For the compound `COC1CCN(C2CN(C(=O)N[S@@]3(=O)=NC(=O)c4ccc5c(c4)N(C[C@@H]4CC[C@H]4[C@@H](OC)/C=C/C[C@H](C)C3)C[C@@]3(CCCc4cc(Cl)ccc43)CO5)C2)CC1` [Example 287], in assay [1], the concentration for half-maximal inhibition (IC50) worked out at 0.029 nM. Besides, the EC50 in the assay on SKBR3 cells was determined as 25 nM.

For the compound `COc1nn(C)cc1C(=O)N[S@@]1(=O)=NC(=O)c2ccc3c(c2)N(C[C@@H]2CC[C@H]2[C@@H](OC)/C=C/[C@H](Oc2cnccn2)[C@H](C)C1)C[C@@]1(CCCc2cc(Cl)ccc21)CO3` [Example 288], the IC50 in assay [1] came to 0.144 nM. In addition, the EC50 with SKBR3 cells stood at 170 nM.

For the compound `CO[C@H]1/C=C/C[C@H](C)C[S@@](=O)(NC(=O)N2CC(O)C2)=NC(=O)c2ccc3c(c2)N(C[C@@H]2CC[C@H]21)C[C@@]1(CCCc2cc(Cl)ccc21)CO3` [Example 289], the IC50 in assay [1] stood at 0.053 nM. Besides, the EC50 with SKBR3 cells stood at 588 nM.

`COc1nn(C)cc1C(=O)N[S@@]1(=O)=NC(=O)c2ccc3c(c2)N(C[C@@H]2CC[C@H]2[C@@H](O)CCC[C@H](C)[C@H]1C)C[C@@]1(CCCc2cc(Cl)ccc21)CO3` [Example 290]: the IC50 in assay [1] amounted to 0.03 nM. Further, the EC50 in the assay on SKBR3 cells is 26.4 nM.

Values taken from patent US10703733B2, “MCL-1 inhibitors” (Gilead Sciences, Inc., priority 2018, dated 2020).
